Test results published in publication PMC6211260 (Journal of Enzyme Inhibition and Medicinal Chemistry, 2018).
Read-outs that look alike come from different tables or passages of the source. Values belong to the compound of their own block, whether it stands above or below them.

Columns and labels:
[1] = test system: PC-3 prostate cancer cell line; assay: NCI five-dose testing; format: cell-based; conditions: Homo sapiens
Procedure: (§1) Screening against the cancer cell lines was carried out at the National Cancer Institute (NCI, Bethesda, Maryland, USA) applying the standard protocol of the NCI[22].

[2] = test system: K-562 leukaemia cell line; assay: NCI five-dose testing; format: cell-based; conditions: Homo sapiens
Procedure: as §1

[3] = test system: SK-MEL-5 melanoma cell line; assay: NCI five-dose testing; format: cell-based; conditions: Homo sapiens
Procedure: as §1

[4] = test system: HT-29 colon cancer cell line; assay: NCI five-dose testing; format: cell-based; conditions: Homo sapiens
Procedure: as §1

[5] = test system: A498 renal cancer cell line; assay: NCI five-dose testing; format: cell-based; conditions: Homo sapiens
Procedure: as §1

[6] = test system: OVCAR-4 ovarian cancer cell line; assay: NCI five-dose testing; format: cell-based; conditions: Homo sapiens
Procedure: as §1

[7] = test system: U251 CNS cancer cell line; assay: NCI five-dose testing; format: cell-based; conditions: Homo sapiens
Procedure: as §1

[8] = test system: HOP-92 non-small cell lung cancer cell line; assay: NCI five-dose testing; format: cell-based; conditions: Homo sapiens; for IC50: HOP-92
Procedure: as §1

[9] = test system: MDA-MB-468 breast cancer cell line; assay: NCI five-dose testing; format: cell-based; conditions: Homo sapiens
Procedure: as §1

[10] = test system: non-small cell lung cancer cell lines; assay: NCI five-dose testing, subpanel mean; format: cell-based; conditions: subpanel II: non-small cell lung cancer
Procedure: as §1

Leukaemia cell lines = assay: NCI five-dose testing, subpanel mean; format: cell-based; conditions: subpanel I: Leukaemia
Procedure: as §1

breast cancer cell lines = assay: NCI five-dose testing, subpanel mean; format: cell-based; conditions: subpanel IX: breast cancer
Procedure: as §1

renal cancer cell lines = assay: NCI five-dose testing, subpanel mean; format: cell-based; conditions: subpanel VII: renal cancer
Procedure: as §1

melanoma cell lines = assay: NCI five-dose testing, subpanel mean; format: cell-based; conditions: subpanel V: melanoma
Procedure: as §1

[11] = test system: prostate cancer cell lines; assay: NCI five-dose testing, subpanel mean; format: cell-based; conditions: subpanel VIII: prostate cancer
Procedure: as §1

colon cancer cell lines = assay: NCI five-dose testing, subpanel mean; format: cell-based; conditions: subpanel III: colon cancer
Procedure: as §1

CNS cancer cell lines = assay: NCI five-dose testing, subpanel mean; format: cell-based; conditions: subpanel IV: CNS cancer
Procedure: as §1

[12] = test system: ovarian cancer cell lines; assay: NCI five-dose testing, subpanel mean; format: cell-based; conditions: subpanel VI: ovarian cancer
Procedure: as §1

Plasma stability = format: in vitro ADME; conditions: 37 °C, 10 µM
Procedure: About 10 µM of compound 2l was mixed with human plasma and rat plasma and the mixture was shaked at 37 °C for 30 min and 120 min. After each time interval, acetonitrile was added and the mixture was centrifugated (14000 rpm, 4 °C). The supernatant was injected into the LC-MS to detect the remaining amount of compound 2l.

SMILES: O=S(=O)(NCCCNc1cc(-c2cn(-c3ccccc3)nc2-c2cccc(O)c2)ccn1)c1ccc(F)cc1 [Compound 2m, 4-Fluoro-N-(3-((4-(3-(3-hydroxyphenyl)-1-phenyl-1H-pyrazol-4-yl)pyridin-2-yl)amino)propyl)benzenesulfonamide]
- LC50 (lethal concentration 50) ([1]; PC-3, read-out: LD50 (lethal dose 50)): 80.7 µM
- IC50 ([1]; PC-3, read-out: IC50): 3.11 µM
- IC (TGI) ([1]; PC-3, read-out: TGI (total growth inhibition concentration)): 8.5 µM
- CC50 ([2]; K562, read-out: LD50 (lethal dose 50)): > 100 µM
- IC50 ([2]; K562, K-562): 2.4 µM
- IC (TGI) ([2]; K562, K-562, read-out: TGI (total growth inhibition concentration)): 6.3 µM
- IC50 ([3]; SK-MEL-5): 3.06 µM
- LC50 (lethal concentration 50) ([3]; SK-MEL-5, read-out: LD50 (lethal dose 50)): 33 µM
- IC (TGI) ([3]; SK-MEL-5, read-out: TGI (total growth inhibition concentration)): 10.1 µM
- CC50 ([4]; HT-29, read-out: LD50 (lethal dose 50)): 47.8 µM
- IC50 ([4]; HT-29, read-out: IC50): 2.26 µM
- IC (TGI) ([4]; HT-29, read-out: TGI (total growth inhibition concentration)): 6.4 µM
- IC50 ([5]; A498): 3.52 µM
- LC50 (lethal concentration 50%) ([5]; A498, read-out: LD50 (lethal dose 50)): 52.3 µM
- IC (TGI) ([5]; A498, read-out: TGI (total growth inhibition concentration)): 9.8 µM
- IC50 ([6]; OVCAR-4): 3.82 µM
- LC50 (lethal concentration 50) ([6]; OVCAR-4, read-out: LD50 (lethal dose 50)): > 100 µM
- IC (TGI) ([6]; OVCAR-4, read-out: TGI (total growth inhibition concentration)): 4.8 µM
- CC50 ([7]; U-251, read-out: LD50 (lethal dose 50)): 69.5 µM
- IC50 ([7]; U-251, U251, read-out: IC50): 2.97 µM
- IC (TGI) ([7]; U-251, U251, read-out: TGI (total growth inhibition concentration)): 10.3 µM
- IC50 [8]: 2.66 µM
- IC (TGI) ([8]; HOP-92, HOP-92, read-out: TGI (total growth inhibition concentration)): 7.6 µM
- LD50 (lethal dose 50) ([8]; HOP-92, read-out: LD50 (lethal dose 50)): 84.2 µM
- IC50 ([9]; MDA-MB-468): 2.55 µM
- CC50 ([9]; MDA-MB-468, read-out: LD50 (lethal dose 50)): > 100 µM
- IC (TGI) ([9]; MDA-MB-468, read-out: TGI (total growth inhibition concentration)): 6.7 µM
- IC50 [10]: 3.91 µM
- IC50 (Leukaemia cell lines): 2.25 µM
- IC50 (breast cancer cell lines): 2.69 µM
- IC50 (renal cancer cell lines): 3.81 µM
- IC50 (melanoma cell lines): 2.89 µM
- IC50 [11]: 3.62 µM
- IC50 (colon cancer cell lines): 2.68 µM
- IC50 (CNS cancer cell lines): 3.28 µM
- IC50 [12]: 3.79 µM

SMILES: Cc1ccc(S(=O)(=O)NCCCNc2cc(-c3cn(-c4ccccc4)nc3-c3cccc(O)c3)ccn2)cc1 [Compound 2n, N-(3-((4-(3-(3-Hydroxyphenyl)-1-phenyl-1H-pyrazol-4-yl)pyridin-2-yl)amino)propyl)-4-methylbenzenesulfonamide]
- melting point: 158 to 160 °C

SMILES: CNC(=O)c1cc(Oc2ccc(NC(=O)Nc3ccc(Cl)c(C(F)(F)F)c3)cc2)ccn1 [Sorafenib, reference compound]
- IC50 ([1]; PC-3): 2.51 µM
- IC50 ([3]; SK-MEL-5): 1.25 µM
- IC50 ([4]; HT-29): 2.51 µM
- IC50 ([7]; U-251): 2.51 µM
- IC50 [8]: 1.85 µM
- IC50 ([9]; MDA-MB-468): 1.99 µM
- IC50 [10]: 2.11 µM
- IC50 (Leukaemia cell lines): 2.23 µM
- IC50 (breast cancer cell lines): 2.15 µM
- IC50 (renal cancer cell lines): 2.89 µM
- IC50 (melanoma cell lines): 8.57 µM
- IC50 [11]: 3.16 µM
- IC50 (colon cancer cell lines): 2.35 µM
- IC50 (CNS cancer cell lines): 2.51 µM
- IC50 [12]: 2.77 µM

SMILES: O=S(=O)(NCCCNc1cc(-c2cn(-c3ccccc3)nc2-c2cccc(O)c2)ccn1)c1ccccc1 [Compound 2j, N-(3-((4-(3-(3-Hydroxyphenyl)-1-phenyl-1H-pyrazol-4-yl)pyridin-2-yl)amino)propyl) benzenesulfonamide]
- melting point: 154 to 156 °C

SMILES: O=S(=O)(NCCNc1cc(-c2cn(-c3ccccc3)nc2-c2cccc(O)c2)ccn1)c1ccccc1 [Compound 1j, N-(2-((4-(3-(3-Hydroxyphenyl)-1-phenyl-1H-pyrazol-4-yl)pyridin-2-yl)amino)ethyl) benzenesulfonamide]
- melting point: 100 to 102 °C

SMILES: COc1cccc(-c2nn(-c3ccccc3)cc2-c2ccnc(NCCCNS(=O)(=O)c3ccccc3)c2)c1 [Compound 2a, N-(3-((4-(3-(3-Methoxyphenyl)-1-phenyl-1H-pyrazol-4-yl)pyridin-2-yl)amino)propyl) benzenesulfonamide]
- melting point: 119 to 120 °C

SMILES: COc1cccc(-c2nn(-c3ccccc3)cc2-c2ccnc(NCCNS(=O)(=O)c3ccccc3)c2)c1 [Compound 1a, N-(2-((4-(3-(3-methoxyphenyl)-1-phenyl-1H-pyrazol-4-yl)pyridin-2-yl)amino)ethyl) benzenesulfonamide]
- melting point: 104 to 106 °C

SMILES: O=S(=O)(NCCNc1cc(-c2cn(-c3ccccc3)nc2-c2cccc(O)c2)ccn1)c1cccc(F)c1 [Compound 1p, 3-Fluoro-N-(2-((4-(3-(3-hydroxyphenyl)-1-phenyl-1H-pyrazol-4-yl)pyridin-2-yl)amino)ethyl)benzenesulfonamide]
- melting point: 146 to 148 °C

Next, values leading:

- melting point: 134 to 136 °C
SMILES: COc1cccc(-c2nn(-c3ccccc3)cc2-c2ccnc(NCCCNS(=O)(=O)c3cccc4ccccc34)c2)c1 [Compound 2i, N-(3-((4-(3-(3-Methoxyphenyl)-1-phenyl-1H-pyrazol-4-yl)pyridin-2-yl)amino)propyl) naphthalene-1-sulfonamide]

- melting point: 144 to 146 °C
SMILES: COc1ccc(S(=O)(=O)NCCNc2cc(-c3cn(-c4ccccc4)nc3-c3cccc(OC)c3)ccn2)cc1 [Compound 1e, 4-Methoxy-N-(2-((4-(3-(3-methoxyphenyl)-1-phenyl-1H-pyrazol-4-yl)pyridin-2-yl)amino)ethyl)benzenesulfonamide]

- melting point: 146 to 148 °C
SMILES: O=S(=O)(NCCNc1cc(-c2cn(-c3ccccc3)nc2-c2cccc(O)c2)ccn1)c1cccc2ccccc12 [Compound 1q, N-(2-((4-(3-(3-Hydroxyphenyl)-1-phenyl-1H-pyrazol-4-yl)pyridin-2-yl)amino)ethyl)naphthalene-1-sulfonamide]

- Plasma stability, remaining unchanged (Plasma stability; Human plasma, 30 min): 1.2%
- Plasma stability, remaining unchanged (Plasma stability; Human plasma, 30 min, listed as procaine): 1.2%
- Plasma stability, remaining unchanged (Plasma stability; Human plasma, 120 min): 0.2%
- Plasma stability, remaining unchanged (Plasma stability; Human plasma, 120 min, listed as procaine): 0.2%
- Plasma stability, remaining unchanged (Plasma stability; Rat plasma, 30 min): 89.9%
- Plasma stability, remaining unchanged (Plasma stability; Rat plasma, 120 min): 42.7%
SMILES: CCN(CC)CCOC(=O)c1ccc(N)cc1 [Procaine]

- melting point: 150 to 152 °C
SMILES: COc1cccc(-c2nn(-c3ccccc3)cc2-c2ccnc(NCCNS(=O)(=O)c3ccc(C)cc3)c2)c1 [Compound 1f, N-(2-((4-(3-(3-Methoxyphenyl)-1-phenyl-1H-pyrazol-4-yl)pyridin-2-yl)amino)ethyl)-4-methylbenzenesulfonamide]

- Plasma stability, remaining unchanged (Plasma stability; Human plasma, 30 min): 91.5%
- Plasma stability, remaining unchanged (Plasma stability; Human plasma, 30 min, listed as diltiazem): 91.5%
- Plasma stability, remaining unchanged (Plasma stability; Human plasma, 120 min): 89.3%
- Plasma stability, remaining unchanged (Plasma stability; Human plasma, 120 min, listed as diltiazem): 89.3%
- Plasma stability, remaining unchanged (Plasma stability; Rat plasma, 30 min): 86.3%
- Plasma stability, remaining unchanged (Plasma stability; Rat plasma, 120 min): 45.4%
SMILES: COc1ccc([C@@H]2Sc3ccccc3N(CCN(C)C)C(=O)[C@@H]2OC(C)=O)cc1 [Diltiazem]

- melting point: 114 to 116 °C
SMILES: Cc1ccc(S(=O)(=O)NCCNc2cc(-c3cn(-c4ccccc4)nc3-c3cccc(O)c3)ccn2)cc1 [Compound 1n, N-(2-((4-(3-(3-Hydroxyphenyl)-1-phenyl-1H-pyrazol-4-yl)pyridin-2-yl)amino)ethyl)-4-methylbenzenesulfonamide]

- melting point: 124 to 126 °C
SMILES: COc1ccc(S(=O)(=O)NCCCNc2cc(-c3cn(-c4ccccc4)nc3-c3cccc(OC)c3)ccn2)cc1 [Compound 2e, 4-Methoxy-N-(3-((4-(3-(3-methoxyphenyl)-1-phenyl-1H-pyrazol-4-yl)pyridin-2-yl)amino)propyl)benzenesulfonamide]

- melting point: 118 to 120 °C
SMILES: COc1cccc(-c2nn(-c3ccccc3)cc2-c2ccnc(NCCNS(=O)(=O)c3cccc(F)c3)c2)c1 [Compound 1h, 3-Fluoro-N-(2-((4-(3-(3-methoxyphenyl)-1-phenyl-1H-pyrazol-4-yl)pyridin-2-yl)amino)ethyl)benzenesulfonamide]

- melting point: 94 to 96 °C
SMILES: COc1cccc(-c2nn(-c3ccccc3)cc2-c2ccnc(NCCCNS(=O)(=O)c3ccc(C)cc3)c2)c1 [Compound 2f, N-(3-((4-(3-(3-Methoxyphenyl)-1-phenyl-1H-pyrazol-4-yl)pyridin-2-yl)amino)propyl)-4-methylbenzenesulfonamide]

- melting point: 178 to 180 °C
SMILES: COc1cccc(-c2nn(-c3ccccc3)cc2-c2ccnc(NCCNS(=O)(=O)c3cccc4ccccc34)c2)c1 [Compound 1i, N-(2-((4-(3-(3-Methoxyphenyl)-1-phenyl-1H-pyrazol-4-yl)pyridin-2-yl)amino)ethyl)naphthalene-1-sulfonamide]
